For 30 compounds, IC50 and EC50 results are on record in US11634396B2 (priority 2021, dated 2023).

One assay has as its target human mOR (Homo sapiens (Human), UniProt P35372). The experiment in a line: cell-based.
Another assay concerns the target human dOR (Homo sapiens (Human), UniProt P41143). The assay is described as follows: cell-based. The note with it: dOR cAMP Agonist Assay EC50, CHO Tag-lite human dOR stable cell line; forskolin.
Where [1] appears, read: CHO Tag-lite human mOR stable cell line, forskolin 4 μM and DAMGO at EC90, read-out: mOR cAMP Antagonist Assay IC50.

Where two headings read alike, the source gives them in different places.

Sequence of human dOR (P41143 whole entry): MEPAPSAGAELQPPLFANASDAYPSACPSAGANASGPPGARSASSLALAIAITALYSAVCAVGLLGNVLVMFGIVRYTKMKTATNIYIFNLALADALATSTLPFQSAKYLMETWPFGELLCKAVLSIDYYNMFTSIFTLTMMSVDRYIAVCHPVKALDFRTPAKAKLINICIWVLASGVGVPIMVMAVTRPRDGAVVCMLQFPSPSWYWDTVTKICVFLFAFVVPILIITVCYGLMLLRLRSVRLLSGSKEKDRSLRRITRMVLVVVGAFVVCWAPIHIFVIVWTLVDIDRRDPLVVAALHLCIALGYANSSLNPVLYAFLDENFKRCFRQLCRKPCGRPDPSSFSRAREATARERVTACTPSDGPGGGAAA
Sequence of human mOR (P35372 whole entry): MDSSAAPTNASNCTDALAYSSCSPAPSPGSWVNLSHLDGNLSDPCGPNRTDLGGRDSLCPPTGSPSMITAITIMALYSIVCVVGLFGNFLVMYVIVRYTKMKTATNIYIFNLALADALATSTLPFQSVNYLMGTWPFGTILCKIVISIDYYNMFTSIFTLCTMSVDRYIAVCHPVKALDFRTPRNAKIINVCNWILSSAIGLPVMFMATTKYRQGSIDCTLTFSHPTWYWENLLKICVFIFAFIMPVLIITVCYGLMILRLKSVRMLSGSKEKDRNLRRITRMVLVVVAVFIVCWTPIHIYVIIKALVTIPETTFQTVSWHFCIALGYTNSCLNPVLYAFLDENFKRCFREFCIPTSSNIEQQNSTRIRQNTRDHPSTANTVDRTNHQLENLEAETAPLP

As usually defined, the IC50 is the midpoint of a concentration-inhibition curve. Usually EC50 stands for the concentration needed to bring the measured effect to its halfway point. As for `Cc1cc(C(N)=O)cc(C)c1C[C@@H](CNC(=O)C[C@H](CC(C)C)c1ccccc1)N(C)C` [Compound 9, 4-[(2S)-2-(dimethylamino)-3-[(3S)-5-methyl-3-phenylhexanamido]propyl]-3,5-dimethylbenzamide], on human mOR, the IC50 is under 0.3 µM. For the same compound, the EC50 at human dOR is over 3 µM.

On to `Cc1cc(C(N)=O)cc(C)c1C[C@@H](CNC(=O)C[C@H](c1ccccc1)C(C)(C)C)N(C)C` [Compound 13, 4-[(2S)-3-[(3S)-4,4-dimethyl-3-phenylpentanamido]-2-(dimethylamino)propyl]-3,5-dimethylbenzamide], for which the IC50 at human mOR is under 0.3 µM. Besides, the EC50 at human dOR was over 3 µM.

As to `CC(C)[C@@H](CC(=O)NC[C@H](Cc1ccc(C(N)=O)cc1Cl)N(C)C)c1ccccc1` [Compound 40, 3-chloro-4-((S)-2-(dimethylamino)-3-((R)-4-methyl-3-phenylpentanamido)propyl)benzamide], the IC50 at human mOR is over 3 µM. For the same compound, the EC50 on human dOR was under 0.3 µM.

`CC(C)[C@@H](CC(=O)NC[C@H](Cc1ccc(C(N)=O)cc1)N(C)C)c1ccccc1` [Compound 92, 4-((S)-2-(dimethylamino)-3-((R)-4-methyl-3-phenylpentanamido)propyl)benzamide]: the IC50 at human mOR is under 0.3 µM. For the same compound, the EC50 at human dOR was under 0.3 µM.

Turning to `CN(C)[C@H](CNC(=O)C[C@@H](c1ccccc1)C(C)(C)C)Cc1ccc(C(N)=O)cc1` [Compound 93, 4-[(2S)-3-[(3R)-4,4-dimethyl-3-phenylpentanamido]-2-(dimethylamino)propyl]benzamide], the IC50 at human mOR is under 0.3 µM. In addition, the EC50 on human dOR is under 0.3 µM.

`CC(C)[C@H](CC(=O)NC[C@H](Cc1ccc(C(N)=O)cc1)N(C)C)c1ccccc1` [Compound 94, 4-[(2S)-2-(dimethylamino)-3-[(3S)-4-methyl-3-phenylpentanamido]propyl]benzamide]: on human mOR, the IC50 is under 0.3 µM. Besides, the EC50 at human dOR is under 0.3 µM.

`CN(C)[C@H](CNC(=O)C[C@H](c1ccccc1)C(C)(C)C)Cc1ccc(C(=O)NCC(F)(F)F)c(F)c1` [Compound 101, 4-((S)-3-((S)-4,4-dimethyl-3-phenylpentanamido)-2-(dimethylamino)propyl)-2-fluoro-N-(2,2,2-trifluoroethyl)benzamide]: the IC50 at human mOR (setting [1]) was under 0.3 µM. Besides, the concentration giving a half-maximal response (EC50) at human dOR lay in the range of 0.3 to 3 µM.

For the compound `CNC(=O)c1cc(F)c(C[C@@H](CNC(=O)C[C@H](c2ccccc2)C(C)(C)C)N(C)C)cc1F` [Compound 104, 4-((S)-3-((S)-4,4-dimethyl-3-phenylpentanamido)-2-(dimethylamino)propyl)-2,5-difluoro-N-methylbenzamide], the IC50 on human mOR was under 0.3 µM. For the same compound, the EC50 at human dOR lay within 0.3 to 3 µM.

For the compound `CNC(=O)c1cc(C)c(C[C@@H](CNC(=O)C[C@@H](c2ccccc2)C(C)(C)C)N(C)C)cc1F` [Compound 146, 4-((S)-3-((R)-4,4-dimethyl-3-phenylpentanamido)-2-(dimethylamino)propyl)-2-fluoro-N,5-dimethylbenzamide], the IC50 at human mOR was under 0.3 µM. Moreover, the EC50 on human dOR is over 3 µM.

On to `CNC(=O)c1ccc(C[C@@H](CNC(=O)C[C@@H](CC(C)C)c2ccccc2)N(C)C)cc1Cl` [Compound 147, 2-chloro-4-((S)-2-(dimethylamino)-3-((R)-5-methyl-3-phenylhexanamido)propyl)-N-methylbenzamide], for which the IC50 at human mOR was under 0.3 µM. For the same compound, the EC50 on human dOR was under 0.3 µM.

In the case of `CNC(=O)c1ccc(C[C@@H](CNC(=O)C[C@H](c2ccccc2)C(C)C)N(C)C)cc1Cl` [Compound 148, 2-chloro-4-((S)-2-(dimethylamino)-3-((S)-4-methyl-3-phenylpentanamido)propyl)-N-methylbenzamide], the IC50 on human mOR is 0.3 to 3 µM. Also, the EC50 at human dOR fell in the range of 0.3 to 3 µM.

`CNC(=O)c1ccc(C[C@@H](CNC(=O)C[C@H](c2ccccc2)C(C)(C)C)N(C)C)cc1Cl` [Compound 150, 2-chloro-4-((S)-3-((S)-4,4-dimethyl-3-phenylpentanamido)-2-(dimethylamino)propyl)-N-methylbenzamide]: on human mOR, the IC50 is under 0.3 µM. In addition, at human dOR, the EC50 is over 3 µM.

For the compound `CNC(=O)c1ccc(C[C@@H](CNC(=O)C[C@@H](C)c2ccc(Cl)cc2)N(C)C)cc1F` [Compound 155, 4-((S)-3-((R)-3-(4-chlorophenyl)butanamido)-2-(dimethylamino)propyl)-2-fluoro-N-methylbenzamide], the IC50 at human mOR (setting [1]) was under 0.3 µM. On human dOR, the EC50 is under 0.3 µM.

As to `CNC(=O)c1ccc(C[C@@H](CNC(=O)C[C@H](C)c2ccc(Cl)cc2)N(C)C)cc1F` [Compound 156, 4-((S)-3-((S)-3-(4-chlorophenyl)butanamido)-2-(dimethylamino)propyl)-2-fluoro-N-methylbenzamide], the IC50 on human mOR (setting [1]) is under 0.3 µM. In addition, at human dOR, the EC50 lay in the range of 0.3 to 3 µM.

Turning to `CNC(=O)c1ccc(C[C@@H](CNC(=O)C[C@H](c2ccccc2)C(C)(C)C)N2CCCC2)cc1F` [Compound 157, 4-((S)-3-((S)-4,4-dimethyl-3-phenylpentanamido)-2-(pyrrolidin-1-yl)propyl)-2-fluoro-N-methylbenzamide], the IC50 on human mOR is under 0.3 µM. Moreover, the EC50 at human dOR was over 3 µM.

Turning to `CNC(=O)c1ccc(C[C@@H](CNC(=O)C[C@H](c2ccccc2)C(C)(C)C)N(C)C)cc1F` [Compound 158, 4-((S)-3-((S)-4,4-dimethyl-3-phenylpentanamido)-2-(dimethylamino)propyl)-2-fluoro-N-methylbenzamide], the IC50 on human mOR was under 0.3 µM. Moreover, the EC50 at human dOR was over 3 µM.

Take `CNC(=O)c1ccc(C[C@@H](CNC(=O)C[C@@H](c2ccccc2)C(C)(C)C)N(C)C)cc1F` [Compound 159, 4-((S)-3-((R)-4,4-dimethyl-3-phenylpentanamido)-2-(dimethylamino)propyl)-2-fluoro-N-methylbenzamide]: on human mOR, the IC50 was under 0.3 µM. Further, the EC50 on human dOR fell in the range of 0.3 to 3 µM.

As for `CNC(=O)c1ccc(C[C@@H](CNC(=O)C[C@@H](CC(C)C)c2ccccc2)N(C)C)cc1F` [Compound 160, 4-((S)-2-(dimethylamino)-3-((R)-5-methyl-3-phenylhexanamido)propyl)-2-fluoro-N-methylbenzamide], the 50% inhibitory concentration (IC50) on human mOR was under 0.3 µM. Moreover, the EC50 at human dOR was under 0.3 µM.

In the case of `CNC(=O)c1ccc(C[C@@H](CNC(=O)C[C@@H](c2ccccc2)C(C)C)N(C)C)cc1F` [Compound 162, 4-((S)-2-(dimethylamino)-3-((R)-4-methyl-3-phenylpentanamido)propyl)-2-fluoro-N-methylbenzamide], the IC50 at human mOR was under 0.3 µM. In addition, at human dOR, the EC50 lay in the range of 0.3 to 3 µM.

Turning to `CNC(=O)c1ccc(C[C@@H](CNC(=O)C[C@H](C)c2ccccn2)N(C)C)cc1F` [Compound 163, 4-((S)-2-(dimethylamino)-3-((S)-3-(pyridin-2-yl)butanamido)propyl)-2-fluoro-N-methylbenzamide], the IC50 at human mOR is under 0.3 µM. Also, the EC50 on human dOR was over 3 µM.

As to `CNC(=O)c1ccc2c(c1)CN(C)[C@H](CNC(=O)C[C@H](c1ccccc1)C(C)(C)C)C2` [Compound 168, (S)-3-(((S)-4,4-dimethyl-3-phenylpentanamido)methyl)-N,2-dimethyl-1,2,3,4-tetrahydroisoquinoline-7-carboxamide], the IC50 at human mOR lay in the range of 0.3 to 3 µM. In addition, the EC50 at human dOR was over 3 µM.

As to `CC(C)C[C@@H](CC(=O)NC[C@H](Cc1ccc2[nH]c(=O)oc2c1)N(C)C)c1ccccc1` [Compound 172, (3S)-N-[(2S)-2-(dimethylamino)-3-(2-oxo-2,3-dihydro-1,3-benzoxazol-6-yl)propyl]-5-methyl-3-phenylhexanamide], the IC50 on human mOR is under 0.3 µM. Moreover, the EC50 on human dOR was under 0.3 µM.

On to `CC(C)[C@@H](CC(=O)NC[C@H](Cc1ccc2[nH]c(=O)oc2c1)N(C)C)c1ccccc1` [Compound 173, (R)-N-((S)-2-(dimethylamino)-3-(2-oxo-2,3-dihydrobenzo[d]oxazol-6-yl)propyl)-4-methyl-3-phenylpentanamide], for which the IC50 at human mOR is under 0.3 µM. For the same compound, at human dOR, the EC50 is under 0.3 µM.

For the compound `CCCC[C@@H](CC(=O)NC[C@H](Cc1ccc2[nH]c(=O)oc2c1)N(C)C)c1ccccc1` [Compound 174], on human mOR, the IC50 was under 0.3 µM. The EC50 at human dOR was under 0.3 µM.

For the compound `CN(C)[C@H](CNC(=O)C[C@H](c1ccccc1)C1CC1)Cc1ccc2[nH]c(=O)oc2c1` [Compound 177, (S)-3-cyclopropyl-N-((S)-2-(dimethylamino)-3-(2-oxo-2,3-dihydrobenzo[d]oxazol-6-yl)propyl)-3-phenylpropanamide], the IC50 on human mOR was under 0.3 µM. For the same compound, the EC50 on human dOR is 0.3 to 3 µM.

With `CN(C)[C@H](CNC(=O)C[C@@H](c1ccccc1)C1CC1)Cc1ccc2[nH]c(=O)oc2c1` [Compound 178, (R)-3-cyclopropyl-N-((S)-2-(dimethylamino)-3-(2-oxo-2,3-dihydrobenzo[d]oxazol-6-yl)propyl)-3-phenylpropanamide], the IC50 on human mOR is under 0.3 µM. Moreover, the EC50 on human dOR fell in the range of 0.3 to 3 µM.

Take `CC(C)[C@@H](CC(=O)NC[C@H](Cc1ccc2c(c1)CC(=O)N2)N(C)C)c1ccccc1` [Compound 182, (R)-N-((S)-2-(dimethylamino)-3-(2-oxoindolin-5-yl)propyl)-4-methyl-3-phenylpentanamide]: at human mOR (setting [1]), the IC50 was over 3 µM. Further, the EC50 on human dOR was over 3 µM.

Consider `CC(C)C[C@@H](CC(=O)NC[C@H](Cc1ccc2c(c1)CC(=O)N2)N(C)C)c1ccccc1` [Compound 183, (S)-N-((S)-2-(dimethylamino)-3-(2-oxoindolin-5-yl)propyl)-5-methyl-3-phenylhexanamide], for which the IC50 on human mOR was under 0.3 µM. The EC50 on human dOR was over 3 µM.

Take `CN(C)[C@H](CNC(=O)C[C@@H](c1ccccc1)C1CC1)Cc1ccc2c(c1)CC(=O)N2` [Compound 186, (R)-3-cyclopropyl-N-((S)-2-(dimethylamino)-3-(2-oxoindolin-5-yl)propyl)-3-phenylpropanamide]: the IC50 on human mOR is under 0.3 µM. Besides, the EC50 on human dOR fell in the range of 0.3 to 3 µM.

Consider `C[C@@H](CC(=O)NC[C@H](Cc1ccc2c(c1)OCC(=O)N2)N(C)C)c1ccccc1` [Compound 187, (S)-N-((S)-2-(dimethylamino)-3-(3-oxo-3,4-dihydro-2H-benzo[b][1,4]oxazin-7-yl)propyl)-3-phenylbutanamide], for which the IC50 at human mOR was under 0.3 µM. Further, the EC50 on human dOR is under 0.3 µM.
